Measured values reported in patent US6864076B2, “Antifungal proteins, DNA coding therefore, and hosts incorporating same” (Syngenta Mogen B.V., priority 1997, dated 2005).

Experiments:
Test in all cases: Oxidase activity (4-AAP/peroxidase, H2O2 production at 510 nm), Michaelis-Menten kinetics with glucose
[1] = target: T1, WL64 carbohydrate oxidase from lettuce (Lactuca sativa), SEQ ID NO: 58 (Lactuca sativa, UniProt Q8SA60); type: biochemical, lettuce (Lactuca sativa cv. Lollo bionda); conditions: substrate glucose; 50 mM potassium phosphate pH 7.0, 25 μM FAD; 29 ng WL64 per assay; per mg protein
T1 sequence (Q8SA60 28-540): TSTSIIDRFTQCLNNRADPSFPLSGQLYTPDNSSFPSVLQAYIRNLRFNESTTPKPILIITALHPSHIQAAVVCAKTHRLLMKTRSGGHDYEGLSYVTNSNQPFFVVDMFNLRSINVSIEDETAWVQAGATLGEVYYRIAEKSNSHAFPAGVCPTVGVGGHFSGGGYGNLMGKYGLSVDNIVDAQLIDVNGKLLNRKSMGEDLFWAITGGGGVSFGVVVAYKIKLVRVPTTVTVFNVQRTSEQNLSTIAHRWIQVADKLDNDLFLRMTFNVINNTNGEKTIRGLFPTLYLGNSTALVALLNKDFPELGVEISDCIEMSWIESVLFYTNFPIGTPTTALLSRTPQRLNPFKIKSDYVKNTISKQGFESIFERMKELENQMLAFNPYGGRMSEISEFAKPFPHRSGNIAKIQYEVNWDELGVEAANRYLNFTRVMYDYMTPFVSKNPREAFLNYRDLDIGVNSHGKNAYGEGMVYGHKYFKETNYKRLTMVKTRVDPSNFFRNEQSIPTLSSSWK
Experimental: (§1) Oxidase activity was measured utilizing the reagent 4-amino-antipyrine (4-AAP), based on Gallo, 1981 (Gallo, Methods in Enzymology, 71:665-668, 1981). A reaction volume of 500 μl contained 50 mM potassium phosphate buffer pH 7.0, 25 μM FAD, 10 mM NaN3, 0.01% Triton X-100, 6 mM 2,4,6,tribromohydroxybenzoic acid, 2 mM 4-AAP, and 10 units horseradish peroxidase. Hydrogenperoxide production was measured at 510 nm. Known amounts of hydrogen peroxide were included for calibration.

[2] = target: T2, MS59 carbohydrate oxidase from sunflower (Helianthus annuus), SEQ ID NO: 16 (Helianthus annuus, UniProt A0A9K3EIF7); type: biochemical, sunflower (Helianthus annuus cv. zebulon); conditions: substrate glucose; 50 mM potassium phosphate pH 7.0, 25 μM FAD; 17 ng MS59 per assay; per mg protein
T2 sequence (A0A9K3EIF7 29-538): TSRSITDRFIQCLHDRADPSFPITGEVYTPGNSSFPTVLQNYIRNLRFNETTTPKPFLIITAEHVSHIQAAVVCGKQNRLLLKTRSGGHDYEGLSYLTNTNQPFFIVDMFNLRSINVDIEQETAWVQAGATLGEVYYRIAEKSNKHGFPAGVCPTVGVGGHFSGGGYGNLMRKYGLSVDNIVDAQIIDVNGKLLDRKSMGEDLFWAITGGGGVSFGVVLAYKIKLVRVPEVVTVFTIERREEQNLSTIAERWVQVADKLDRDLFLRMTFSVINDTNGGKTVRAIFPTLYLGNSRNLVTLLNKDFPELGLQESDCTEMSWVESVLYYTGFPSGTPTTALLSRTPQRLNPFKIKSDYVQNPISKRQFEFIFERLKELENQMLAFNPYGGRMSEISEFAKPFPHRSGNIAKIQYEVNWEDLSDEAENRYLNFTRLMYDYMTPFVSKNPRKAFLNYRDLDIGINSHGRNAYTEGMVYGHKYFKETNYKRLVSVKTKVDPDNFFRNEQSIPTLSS
Experimental: as §1

[3] = target: glucose oxidase (GOX) from Aspergillus niger (Sigma, G 2133) (Aspergillus niger, UniProt P13006); type: biochemical; conditions: substrate glucose, 50 mM potassium phosphate pH 7.0, 25 μM FAD, 45 ng GOX per assay
Sequence of glucose oxidase (GOX) from Aspergillus niger (Sigma, G 2133) (P13006 17-605): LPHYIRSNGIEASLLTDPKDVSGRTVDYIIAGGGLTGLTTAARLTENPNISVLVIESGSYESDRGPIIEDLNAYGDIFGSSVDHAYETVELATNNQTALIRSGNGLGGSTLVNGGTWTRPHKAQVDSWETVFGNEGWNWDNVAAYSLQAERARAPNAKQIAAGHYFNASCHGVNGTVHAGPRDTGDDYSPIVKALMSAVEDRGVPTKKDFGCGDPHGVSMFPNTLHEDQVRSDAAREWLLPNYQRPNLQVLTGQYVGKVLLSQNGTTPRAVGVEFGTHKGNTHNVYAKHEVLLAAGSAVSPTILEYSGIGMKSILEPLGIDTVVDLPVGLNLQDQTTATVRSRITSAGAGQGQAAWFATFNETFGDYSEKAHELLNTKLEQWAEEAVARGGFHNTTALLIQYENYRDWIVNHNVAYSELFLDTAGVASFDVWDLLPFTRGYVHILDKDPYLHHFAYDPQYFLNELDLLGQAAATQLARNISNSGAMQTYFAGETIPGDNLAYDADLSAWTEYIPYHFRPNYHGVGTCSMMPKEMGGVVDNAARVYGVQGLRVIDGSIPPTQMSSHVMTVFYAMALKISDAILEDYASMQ
Experimental: as §1

OC[C@H]1OC(O)[C@H](O)[C@@H](O)[C@@H]1O (stereo partly shown) [Glucose, glucose]
Vmax [1]: 5.7 μmolH2O2/min/mg | Vmax [2]: 16.8 μmolH2O2/min/mg | Km ([3]; Lineweaver-Burk): 359 µM | Vmax ([3]; per mg protein): 9.7 μmolH2O2/min/mg
